Experimental data reported in patent US20050054770A1, “Helicomimetics and stabilized lxxll peptidomimetics” (priority 2001, published 2005).
Positions of bridges follow the written chain, without caps; N, C: chain ends. Non-standard residues stand in square brackets, D forms with d. Residues, ends and D or L forms follow the SMILES beside them. dPen = CC(C)(S)[C@@H](N)C(=O)O; Pen = CC(C)(S)[C@H](N)C(=O)O

Legend:
estrogen receptors = assay: inhibition of the binding of the estrogen receptors to the helical segment of coactivator proteins; conditions: result in words
Experimental: (§1) The synthetic helicormimetic peptides designed as antagonists of the estrogen receptor-coactivator interactions were tested in a competition binding assay (Lilly Research Labs) against a model linear peptide sequence. Activities are reported in the Table below in Ki values, with two of the best analogs labeled as PERM-1 and PERM-2, or Peptidomimetic Estrogen Receptor Modulators.

ER alpha = target: T1, ER alpha (Homo sapiens, UniProt P03372); assay: competition binding assay against a model linear peptide sequence (estrogen receptor-coactivator interaction), ER alpha; conditions: competition binding assay (Lilly Research Labs); read-out: Ki ER α
T1 sequence (P03372 1-595): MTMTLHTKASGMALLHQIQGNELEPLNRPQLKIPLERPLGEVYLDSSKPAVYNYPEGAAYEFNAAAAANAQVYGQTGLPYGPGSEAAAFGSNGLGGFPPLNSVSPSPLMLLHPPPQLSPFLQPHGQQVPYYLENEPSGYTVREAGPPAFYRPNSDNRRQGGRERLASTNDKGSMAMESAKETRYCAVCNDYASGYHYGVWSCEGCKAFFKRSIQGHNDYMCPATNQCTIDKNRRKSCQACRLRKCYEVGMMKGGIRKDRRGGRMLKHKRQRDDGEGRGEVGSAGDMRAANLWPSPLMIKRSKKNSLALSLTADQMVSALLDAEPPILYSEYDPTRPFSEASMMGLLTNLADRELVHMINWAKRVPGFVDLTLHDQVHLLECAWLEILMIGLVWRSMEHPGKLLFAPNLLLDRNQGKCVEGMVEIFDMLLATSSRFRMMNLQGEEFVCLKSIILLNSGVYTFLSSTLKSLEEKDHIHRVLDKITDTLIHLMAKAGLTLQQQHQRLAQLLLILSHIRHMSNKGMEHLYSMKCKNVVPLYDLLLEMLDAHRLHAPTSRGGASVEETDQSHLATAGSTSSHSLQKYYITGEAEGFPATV
Experimental: as §1

ER beta = ER beta (Homo sapiens, UniProt Q92731); assay: competition binding assay against a model linear peptide sequence (estrogen receptor-coactivator interaction), ER beta; conditions: competition binding assay (Lilly Research Labs); read-out: Ki ER β
Experimental: as §1

ER beta, sequence (Q92731 whole entry): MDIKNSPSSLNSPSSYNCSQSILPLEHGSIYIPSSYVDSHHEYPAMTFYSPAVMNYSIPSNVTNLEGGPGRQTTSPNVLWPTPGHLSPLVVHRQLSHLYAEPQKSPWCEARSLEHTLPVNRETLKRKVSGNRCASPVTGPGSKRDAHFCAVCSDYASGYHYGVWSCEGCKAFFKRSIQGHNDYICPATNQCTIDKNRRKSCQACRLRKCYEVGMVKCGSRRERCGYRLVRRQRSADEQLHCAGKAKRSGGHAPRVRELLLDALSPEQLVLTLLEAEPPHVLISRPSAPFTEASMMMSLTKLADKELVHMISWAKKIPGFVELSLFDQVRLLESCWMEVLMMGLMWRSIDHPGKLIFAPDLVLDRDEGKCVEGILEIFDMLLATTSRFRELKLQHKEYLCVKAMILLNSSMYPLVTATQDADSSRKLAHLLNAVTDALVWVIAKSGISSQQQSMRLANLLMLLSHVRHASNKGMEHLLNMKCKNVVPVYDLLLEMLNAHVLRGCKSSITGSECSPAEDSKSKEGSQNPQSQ

Row | Compound | inhibitory activity on binding of estrogen receptors to helical segment of coactivator proteins (estrogen receptors) | Ki (ER alpha) | Ki (ER beta)
1 | Leu-Asn-Gln-Leu-Leu (LNQLL; printed: Leu-Asn-Gln-Leu-Leu) | do not display any inhibitory activity | – | –
2 | CC[C@H](C)[C@@H]1NC(=O)[C@H](CC(C)C)NC(=O)[C@@H](NC(=O)[C@@H](N)CCCCN)CSSC[C@H](C(=O)N[C@@H](CCCNC(=N)N)C(=O)N[C@@H](CC(C)C)C(=O)N[C@@H](CC(C)C)C(=O)N[C@@H](CCC(N)=O)C(N)=O)NC1=O [AKG-I-59, H-Lys-cyclo(Cys-Leu-Ile-D-Cys)-Arg-Leu-Leu-Gln-NH2] (H-KCLI[dC]RLLQ-NH2; disulfide 2-5) | – | 2100 nM | 17000 nM
3 | CC[C@H](C)[C@@H]1NC(=O)[C@H](NC(=O)[C@H](CC(C)C)NC(=O)[C@H](CC(C)C)NC(=O)[C@@H](N)CCCCN)CSSC[C@@H](C(=O)N[C@@H](CCCNC(=N)N)C(=O)N[C@@H](CC(C)C)C(=O)N[C@@H](CC(C)C)C(=O)N[C@@H](CCC(N)=O)C(N)=O)NC(=O)[C@H](CC(C)C)NC1=O [AKG-I-46, H-Lys-Leu-Leu-cyclo(D-Cys-Ile-Leu-Cys)-Arg-Leu-Leu-Gln-NH2] (H-KLL[dC]ILCRLLQ-NH2; disulfide 4-7) | – | 398 nM | 2000 nM
4 | CC(C)C[C@H](NC(=O)[C@H](CC(C)C)NC(=O)[C@H](CCCNC(=N)N)NC(=O)[C@H]1CSSC[C@H](NC(=O)[C@@H](N)CCCCN)C(=O)N[C@@H](CC(C)C)C(=O)N1)C(=O)N[C@@H](CCC(N)=O)C(N)=O [AKG-I-63, H-Lys-cyclo(Cys-Leu-D-Cys)-Arg-Leu-Leu-Gln-NH2] (H-KCL[dC]RLLQ-NH2; disulfide 2-4) | – | 2200 nM | 7900 nM

Further compounds by falling Ki (ER alpha), results first:

Row | inhibitory activity on binding of estrogen receptors to helical segment of coactivator proteins (estrogen receptors) | Ki (ER alpha) | Ki (ER beta) | Compound
5 | – | 380 nM | 6900 nM | CC[C@H](C)[C@H](NC(=O)[C@H](CCCCN)NC(=O)[C@H](Cc1c[nH]cn1)NC(=O)[C@@H](N)CCCCN)C(=O)N[C@@H](CC(C)C)C(=O)N[C@@H](Cc1c[nH]cn1)C(=O)N[C@@H](CCCNC(=N)N)C(=O)N[C@@H](CC(C)C)C(=O)N[C@@H](CC(C)C)C(=O)N[C@@H](CCC(N)=O)C(=O)N[C@@H](CC(=O)O)C(=O)N[C@@H](CO)C(=O)N[C@@H](CO)C(=O)O [AML-I-89/2, H-Lys-His-Lys-Ile-Leu-His-Arg-Leu-Leu-Gln-Asp-Ser-Ser-OH] (H-KHKILHRLLQDSS-OH)
6 | – | 168 nM | 933 nM | CC[C@H](C)[C@@H]1NC(=O)[C@H](NC(=O)[C@@H](N)CCCNC(=N)N)C(C)(C)SSC[C@@H](C(=O)N[C@@H](CCCNC(=N)N)C(=O)N[C@@H](CC(C)C)C(=O)N[C@@H](CC(C)C)C(=O)N[C@@H](CCC(N)=O)C(N)=O)NC(=O)[C@H](CC(C)C)NC1=O [AKG-II-9, H-Arg-cyclo (D-Pen-Ile-Leu-Cys)-Arg-Leu-Leu-Gln-NH2] (H-R[dPen]ILCRLLQ-NH2; disulfide 2-5)
7 | – | 120 nM | 7700 nM | CC[C@H](C)[C@@H]1NC(=O)[C@H](NC(=O)[C@H](CCCCN)NC(C)=O)CSSC[C@@H](C(=O)N[C@@H](CCCNC(=N)N)C(=O)N[C@@H](CC(C)C)C(=O)N[C@@H](CC(C)C)C(=O)N[C@@H](CCC(N)=O)C(N)=O)NC(=O)[C@H](CC(C)C)NC1=O [AML-I-71/2, Ac-Lys-cyclo(D-Cys-Ile-Leu-Cys)-Arg-Leu-Leu-Gln-NH2] (Ac-K[dC]ILCRLLQ-NH2; disulfide 2-5)
8 | – | 78 nM | 3970 nM | CC[C@H](C)[C@@H]1NC(=O)[C@H](NC(=O)[C@@H](N)CCCNC(=N)N)C(C)(C)SSC(C)(C)[C@@H](C(=O)N[C@@H](CCCNC(=N)N)C(=O)N[C@@H](CC(C)C)C(=O)N[C@@H](CC(C)C)C(=O)N[C@@H](CCC(N)=O)C(N)=O)NC(=O)[C@H](CC(C)C)NC1=O [AKG-II-11, H-Arg-cyclo(D-Pen-Ile-Leu-Pen)-Arg-Leu-Leu-Gln-NH2] (H-R[dPen]IL[Pen]RLLQ-NH2; disulfide 2-5)
